These results are taken from patent publication US8173668B1 (Alcon Research, Ltd., priority 2007, dated 2012).

One assay relates to h-CM cells. The assay can be described thus: Prostaglandin production in h-CM cells. The assay is classed as cell-based, human. Particulars: 1-10 μM. As to the method:
(§1) A functional assay to discover BK agonists may involve the measurement of prostaglandin E2 (PGE2) production (Wiernas et al. Brit. J. Pharmacol. 123: 1127-1137, 1998), for instance, in cells isolated from human or animal ocular or non-ocular tissues, or cells expressing recombinant (preferably human) BK receptors. Cells expressing BK receptors are seeded in 48-wells culture plates and allowed to reach confluence. After this time the cells are rinsed twice with 0.5 mL of phosphate buffered saline and incubated with the test agent made up in 0.5 mL Dulbeco's modified Eagle's medium (DMEM)/F-12 for 1 h at 37° C. […]
(§2) After this incubation, all tubes are placed in an ice-bath and 1 ml cold precipitating reagent supplied in the kit is added to the tubes, the content mixed and incubated for 25 min at 4° C. […] The supernatants of all tubes are decanted as specified in the kit instructions and the RIA samples analyzed on a gamma-counter. The levels of PGE2 generated by the test agent are then quantified in comparison with the PGE2-standard curve. Dose-response data for the test agent are constructed and the potency and intrinsic activity determined as described above for other assays. […]

The subject of a further assay is h-NPE cells. Description: Prostaglandin production in h-NPE cells. The assay is classed as cell-based, human. The following applies: 1-10 μM. As to the method: as §1, §2

Take `CNC(=O)c1ccc(/C=C/C(=O)NCC(=O)N(C)c2ccc(Cl)c(COc3cccc4c(OCc5ccccn5)cc(C)nc34)c2Cl)cc1` [FR-190997]: the production of prostaglandins in the assay with h-CM cells is listed as 1.75 fold above basal; in the assay on h-NPE cells, 1.26 fold above basal.
